Source: US20250234862A1, “FUNGICIDAL COMPOSITION FOR PREVENTING AND CONTROLLING ROOT ROT DISEASES IN CROPS CAUSED BY FUSARIUM SPP” (Institute Of Plant Protection And Agro-Products Safety, …, priority 2024, published 2025)

Tests used:
[1] = tested on: Fusarium pseudogramineaqum; assay: Indoor toxicity determination, mycelial growth assay on PDA medium; type: cell-based; conditions: mycelial growth inhibition, 25° C., wheat Fusarium pseudogramineaqum
Protocol: (§1) A detailed analysis of the fungicidal properties of cyclobutrifluram and ipconazole was conducted. First, the EC50 ([…]) of the two single compounds (hereinafter referred to as agents) was determined. According to the EC50 of the two single agents, the combination ratio of the two agents was set according to the Wadley method, and based on the Wadley synergistic coefficient SR value.
(§2) The experimental targets were Fusarium pseudogramineaqum and Fusarium solani. The cyclobutrifluram and ipconazole were selected, and the PDA solid medium were selected, and the required liquid chemicals plates were prepared at about 18 ml per plate. The mycelium blocks with 5 mm diameter were prepared at the edge of pre cultured colonies using a sterilized punch, transferred to different culture media plates, and cultivated at 25° C. The experiment used the mycelial growth assay method to prepare drug containing culture media according to different treatments. The mycelium blocks with 5 mm diameter were prepared at the edge of pre cultured colonies using a sterilized punch and transferred to different culture media plates with different drug contents. The colony diameter was measured using the cross over method, and the colony diameter (mm) was measured. The growth inhibition rate was calculated using the following formula: […]
(§3) The mycelial growth inhibition rate was converted to the inhibition probability value (y), and the drug concentration was converted to the concentration logarithm (x). The concentration logarithm was used as the x-axis and the probability value was used as the y-axis to create a toxicity regression line. The toxicity regression equation of a single agent of cyclobutrifluram and ipconazole and a mixed agent of cyclobutrifluram and ipconazole against the pathogen were obtained, and the EC50 value and correlation coefficient r were calculated.
(§4) According to the Wadley method to evaluate the interaction of the mixed agent, the calculation formula is as follows: […]
(§5) Among them, a and b are the proportions of each component in the mixed agent, and the SR value is used to analyze the mixing effect. If SR≤0.5, the mixed agent of the two drugs has an antagonistic effect; if SR=0.5-1.5, the mixed agent of the two drugs has an additive effect; if SR≥1.5, the mixed agent of the two drugs has a synergistic effect.

[2] = tested on: Fusarium solani; assay: as above; type: cell-based; conditions: mycelial growth inhibition, 25° C., soybean Fusarium solani
Protocol: as §1, §2, §3, §4, §5

[3] = tested on: wheat stem base rot disease; assay: Field control experiment on wheat stem base rot disease (seed coating); type: in vivo, wheat variety Quanmai 725
Protocol: Experiments employed 20% cyclobutrifluram·ipconazole suspension seed coating agent in example 1 of formulation implementation and 45% cyclobutrifluram suspension seed coating agent, 20% ipconazole suspension seed coating agent, and 15% carbendazim·thiram suspension seed coating agent. Experimental site was located at Liu Lake Farm in Suixi County using the wheat variety “Quanmai 725”. The agent was applied to seeds at a 1:1000 ratio by weight for seed coating. Additionally, the agent was diluted into a solution, with a final volume of 1 liter of solution used to treat 100 kg of wheat seeds, which were then dried in the shade before direct planting. Disease investigations were conducted during the tillering stage and after the growth of wheat entered the jointing-booting stage (Table 3).

SMILES	EC50 [1] [ppm]	EC50 [2] [ppm]	control effect on wheat stem base rot disease (in words) [3]
O=C(NC1CCC1c1ccc(Cl)cc1Cl)c1cccnc1C(F)(F)F (stereo not drawn) [Cyclobutrifluram]	0.3033	0.3774	significant control effect
CC(C)C1CCC(Cc2ccc(Cl)cc2)C1(O)Cn1cncn1 (stereo not drawn) [Ipconazole, (1RS,2SR,5RS;1RS,2SR,5SR)-2-(4-chlorobenzyl)-5-isopropyl-1-(1H-1,2,4-triazol-1-ylmethyl)cyclopentanol]	0.1506	0.1808	significant control effect
